What was measured:
[1] = tested on: mast cell tumors; settings: mast cell tumors in canines; cited from earlier work
[2] = tested on: tumor necrosis factor–α; test: TNF-α ELISA, A549 cells; assay type: cell-based, Human; settings: for TNF-α (ELISA): 24 hours, lowest detectable limit 3.5 pg/ml
Method: The Anti-Human IL-8 pre-coated 96-well Strip Microplate and Anti-Human TNF-α pre-coated 96-well Strip Microplate were each washed 4 times by hand. With each wash, at least 300 μL of 1X Wash Buffer was added per well and aspirated, and any residual buffer was removed by blotting the plate on an absorbent paper towel. Following this wash cycle, 50 μL of Assay Buffer A was added to each well that would ultimately contain sample or standard. To rigorously ensure no cellular debris was left in the analyte, an ad ditional centrifugation step was performed (1800 rpm for 3 minutes) before transferring 50 μL of sample or standard dilutions to the appropriate wells.
Adhesive plate sealers were utilized to cover the plates, prevent contamination, and avoid sample evaporation after which each plate was placed on a cell shaker and allowed to shake at room temperature at 200 rpm for 2 hours. Following incubation, the contents of each plate were discarded and subsequently washed by hand 4 times with 1X Wash Buffer, as previo usly reported. […]

[3] = tested on: interleukin-8; test: IL-8 ELISA, A549 cells; assay type: cell-based, Human; settings: 24 hours
Method: Because SUW402 and SUW431 are potent activators of NF-κB, we used an enzyme-linked immunosorbent assay to measure their ability to up-regulate inflammatory cytokine production (tumor necrosis factor–α and interleukin-8). We stimulated A549 cells with SUW402 and SUW431 at the same concentrations used in the NF-κB activation assay: 500 and 50 nM (figs. S1 and S2). […] At 500 or 50 nM, both SUW402 and SUW431 produced only modest levels of interleukin-8, a 15 to 25% increase relative to the DMSO negative control.
Enzyme Linked Immunosorbent Assay (ELISA) for SUW402 and SUW431 mediated IL-8 and […]
In efforts to replicate the conditions of the in vitro NF -κB assay, 5 x 10^4 A549 cells were plated per well on Corning® 96-well Clear Round Bottom TC-treated Microplates in 180 μl of pre-warmed DMEM (4.5 g/L glucose, 10% FBS, and 1% Pen-Strep-Glutamine (100 X, 50 mg/mL)).
Following incubation at 37 °C in 5% CO2 for approximately 24 hours to allow for cell adherence, 1.8 μl of either SUW402 or SUW431 were added in triplicate to their respective wells to achieve a final compound concentration of either 50 nM or 500 nM, the two concentrations tested in the NF-κB assay. 24 hours after compound addition, the microplate containing cells treated with compound was spun at 1800 rpm for 3 minutes to allow for pelleting of cells and other debris before 150 μL of cellular supernatant was aspirated and transferred to a new Corning® 96 -well Clear Round Bottom TC-treated Microplate. Note that if the supernatant is not meant to be immediately analyzed, the microplate containing cellular supernatant should be paraf ilm, wrapped, and stored at -80 °C. Careful attention should be paid to avoiding freeze-thaw cycles. To quantify cytokine secretion within samples, dilutions were performed using Assay Buffer A included in the LEGEND MAX™ Human IL-8 ELISA Kit (Cat # 431507) and LEGEND MAX™ Human TNF-α ELISA Kit (Cat # 430207), respectively.
Immediately before running the assay, reagents were allowed to come to room temperature and diluted. Note that if the supernatant is frozen, it should be removed at this time and allowed to thaw. The 1X Wash Buffer was prepared by diluting the 20X Wash Buf fer with Invitrogen™ UltraPure™ DNase/RNase-Free Distilled Water. The lyophilized human IL-8 and TNF-α standards were reconstituted by adding the appropriate volume of Assay Buffer A to prepare the 20 ng/mL standard stock solutions. The reconstituted stand ards were allowed to sit at room temperature for 20 minutes before being gently vortexed to ensure complete mixing. To generate a standard curve for each cytokine, 500 μL of a 1,000 pg/mL top standard was prepared after which six two -fold serial dilutions of the top standard were performed in 1.7 mL microcentrifuge tubes using Assay […]

Structure (SMILES)	cure rate [1]	TNF-α (ELISA) ([2]; 50 nM)	TNF-α (ELISA) ([2]; 500 nM)	tumor necrosis factor–α production in words ([2]; 500 and 50 nM)	IL-8 (ELISA) ([3]; 50 nM)	IL-8 (ELISA) ([3]; 500 nM)
C/C=C(\C)C(=O)O[C@@H]1[C@@H](C)[C@@]2(O)[C@H]([C@@H]3C(C)(C)[C@]13OC(=O)[C@@H](C)CC)[C@@H]1O[C@]1(CO)[C@@H](O)[C@]1(O)C(=O)C(C)=C[C@H]12 [EBC-46, Tigilanol tiglate]	≤ 88%					
C/C=C(\C)C(=O)O[C@@H]1[C@@H](C)[C@@]2(O)[C@@H](C=C(CO)C[C@]3(O)C(=O)C(C)=C[C@@H]23)[C@@H]2C(C)(C)[C@]12OC(=O)[C@@H](C)CC [SUW402]		< 3.5 pg/mL	< 3.5 pg/mL	did not produce detectable levels of tumor necrosis factor–α at either concentration	3352 pg/mL	3106 pg/mL
C/C=C(\C)C(=O)O[C@@H]1[C@@H](C)[C@@]2(O)[C@H]([C@@H]3C(C)(C)[C@]13OC(=O)Cc1cccc3ccccc13)[C@@H]1O[C@]1(CO)[C@@H](O)[C@]1(O)C(=O)C(C)=C[C@H]12 [SUW431]		4.4 pg/mL	8.4 pg/mL		3369 pg/mL	3232 pg/mL
